Where a SMILES comes first, the peptide text is derived from it. [ ]: non-standard residue; d: D form. The star is where a group is joined. NH(4-amidinobenzyl) = N=C(N)c1ccc(CN*)cc1
Experiments:
[1] = 37 °C, 500 µg/mL; cited from earlier work
Procedure: However, these were conducted at a substantially higher concentration of Ac-[D-Leu]LLLRVK-amba of 500 µg/mL compared to the 1 µg/mL investigated here. […] Such lower stability in plasma compared to whole blood was already reported for several peptides.

[2] = Bench-top stability in mouse plasma; format: in vitro ADME; conditions: mouse plasma anti-coagulated with Li-heparin, minimally diluted, room temperature
Procedure: (§1) To investigate peptide stability, minimally diluted plasma or blood samples were generated through the addition of 10 µL of a spiking solution (50,000 ng/mL) to 490 µL of the pertinent biological matrix, resulting in a sample concentration of 1000 ng/mL. Samples (withdrawal of duplicates of 20 µL) were measured immediately after preparation and again after 1 and 2 h. Stability was evaluated via the comparison of peak area ratios of analyte and IS.
To determine which biological matrix is best suited for pharmacokinetic experiments in mice, we investigated the bench-top stability of Ac-[D-Leu]LLLRVK-amba in plasma and fresh whole blood at room temperature over a 2 h period (Figure 3). In plasma, anti-coagulated with Li-heparin, Ac-[D-Leu]LLLRVK-amba was very rapidly degraded.

[3] = Stock solution stability; format: physicochemical; conditions: 2 weeks; solutions in ACN/H2O (1/1, v/v) + 0.1% FA in glass, kept at 4 °C
Procedure: Calibration and quality control (QC) spike solutions were prepared in ACN/H2O (1/1, v/v) + 0.1% FA in glass vials. These were produced from stock solution generated from accurately dissolved independent weighings into 2 mL volumetric flasks. Calibration solutions were prepared at concentrations of 8, 24, 80, 240, 800, […], and 8000 ng/mL. QC solutions were prepared at concentrations of 8, 24, 3000, and 6000 ng/mL. The IS spike solution was prepared accordingly at a concentration of 400 ng/mL. Solutions were kept at 4 °C.
Extraction via protein precipitation combined with UPLC-MS/MS quantification for Ac-[D-Leu]LLLRVK-amba complied with the FDA and EMA recommendations for accuracy, precision, linearity, matrix effects, and recovery. Within the calibrated range (10–10,000 ng/mL), correlation coefficients (r^2) of >0.99 were obtained using linear regression and 1/x^2 weighting (Table S3). Table 1 gives an overview of the intraday and interday accuracies and precision values during validation, which were well within the required limits. The observed carry-over after the highest calibration sample was 0.015% and within the required limits of less than 20% of the peak area of the LLOQ. Stock solution stability was established for 2 weeks, which was sufficient to cover sample analyses with an accuracy of 93.7% of the peak areas of the stored solutions compared to initial values.

[4] = system: PACE4; conditions: cited from earlier work
Source text: PACE4 is a calcium-dependent serine endoprotease, which has been identified as a potential therapeutic target in prostate cancer. Recently, an efficient inhibitory peptide for PACE4 has been reported, Ac-[D-Leu]LLLRVK-amba, which inhibits PACE4 with low nanomolar affinity. Such high affinity was achieved by optimizing the previously discovered multi-Leu peptide by inserting a […] acetylated D-leucine and replacing the […] arginine with a decarboxylated variant, a 4-amidinobenzylamide (amba) moiety.

[5] = Stability in human whole blood; format: in vitro ADME; conditions: human whole blood (K-EDTA), over at least 2 h; 1000 ng/mL, room temperature; UPLC-MS/MS
Procedure: as §1
Because an isotopically labeled analog of Ac-[D-Leu]LLLRVK-amba was used as IS, potential variations in (negligible) matrix effects can be efficiently balanced by the IS due to its identical physicochemical characteristics. As a consequence, whole blood from other species is appropriate for calibration and QC preparation. Therefore, whole blood from human donors was used for these purposes, which also helps to reduce animal sacrifice.

[6] = Metabolite identification / degradation in mouse plasma by HRMS; format: in vitro ADME; conditions: minimally diluted mouse plasma
Procedure: Metabolite identification experiments were performed in minimally diluted mouse plasma at a Ac-[D-Leu]LLLRVK-amba concentration of 20 µg/mL. Minimally diluted plasma samples were incubated at room temperature and analyzed after 0, 0.5, 4, and 16 h. Samples were depleted from proteins via precipitation with a 2-fold excess of ACN + 0.1% FA and diluted with one equivalent of water + 0.1% FA for direct infusion onto the mass spectrometer.
High-resolution mass spectrometric (HRMS) determinations for the investigation of Ac-[D-Leu]LLLRVK-amba metabolism/degradation in plasma were performed on a Xevo G2-XS QTof (Waters, Milford, MA, USA) equipped with a heated Z-spray ESI source. Measurements were performed via direct infusion using the integrated infusion pump with positive ion sensitivity mode.

- half-life at 1000 ng/mL ([2]; CD-1, 1 µg/mL (1000 ng/mL), sampled at 0, 1 and 2 h, duplicates of 20 µL, UPLC-MS/MS peak area ratio analyte/IS, read-out: calculated half-life (t1/2) in plasma (converted)): 28.8 min
- calculated half-life (t1/2) in plasma ([2]; 1 µg/mL, 0, 1 and 2 h, duplicates, UPLC-MS/MS, same value given in min): 29 min
- stock solution stability, accuracy of peak areas of stored solutions compared to initial values [3]: 93.7%
- degradation in human whole blood [5]: no detectable degradation
- metabolites / degradation products in mouse plasma ([6]; 20 µg/mL, room temperature over 16 h, HRMS, neither peptide bond hydrolysis nor oxidation products): no traces of metabolites were observed
- stability in mouse plasma at 20 µg/mL ([6]; room temperature, 0, 0.5, 4 and 16 h, HRMS direct infusion (m/z 50-1200)): several hours
Compound: CC(=O)N[C@H](CC(C)C)C(=O)N[C@@H](CC(C)C)C(=O)N[C@@H](CC(C)C)C(=O)N[C@@H](CC(C)C)C(=O)N[C@@H](CCCNC(=N)N)C(=O)N[C@H](C(=O)N[C@@H](CCCCN)C(=O)NCc1ccc(C(=N)N)cc1)C(C)C [Ac-[D-Leu]LLLRVK-amba] (Ac-[dL]LLLRVK-{NH(4-amidinobenzyl)})
- half-life in Na-heparin mouse plasma [1]: 1080 min
- affinity of PACE4 inhibition [4]: low nanomolar
